# Data from patent US6514517B2, “Antimicrobial coatings for medical devices” (Ethicon, Inc., priority 2001, dated 2003).
# System: Staphylococcus aureus ATCC33591
# Assay: Kirby-Bauer type test, coated suture sections on seeded agar plates
# Type: cell-based
# Procedure: In order to further evaluate the in-vitro potential for pH-lowering coatings, a study was carried out with Staphylococcus aureus ATCC33591. A series of coatings was prepared by dissolving 2.5, 5, 10 and 20 percent (w/w) of L(−)-lactide, respectively, in ethyl acetate. A second series of coatings was prepared by dissolving 2.5, 5, 10 and 20 percent (w/w) of L(−)-lactide in combination with 9 percent (w/w) polyoxaester, respectively, in ethyl acetate.
# The polyoxaester coating copolymer used was a poly(ethylene 3,6,9-trioxaundecanedioate-seg-caprolactone-co-glycolide) resin comprised of approximately 17 weight percent polyoxaester prepolymer and a 83 weight percent polymerized mixture of approximately 91 mole percent ε-caprolactone and 9 mole percent glycolide. The polyoxaester is a polycondensation product of 3,6,9-trioxaundecanedioic acid and ethylene glycol made to have hydroxyl functionalities at both ends of each chain. The final resin is made through a ring opening polymerization of the ε-caprolactone and glycolide mixture using the polyoxaester as an α,ω-dihydroxy-macroinitiator. The inherent viscosity of the coating copolymer was 0.55 dL/g as determined in hexafluoroisopropanol (HFIP) at 25° C. at a concentration of 0.1 g/dL.
# A third series of coatings was prepared by dissolving 2.5, 5, 10 and 20 percent (w/w) of glycolide, respectively, in ethyl acetate. A fourth series of coatings was prepared by dissolving 2.5, 5, 10 and 20 percent (w/w) of glycolide in combination with 9 percent (w/w) polyoxaester coating copolymer, respectively, in ethyl acetate. Approximately one-inch sections of commercial size 2/0 synthetic absorbable braided [10/90 poly(lactide-co-glycolide)] suture were dipped into the solutions and were dried overnight in a laminar flow hood, thereby providing a coated suture according to the present invention. In a Kirby-Bauer type test, plates were seeded with a 24-hour culture of Staph. aureus. The coated suture sections were placed on agar plates and the plates were incubated at 30-35° C. for 24 hours. […] For sutures coated from solutions comprising 2.5 percent and 5 percent lactide, respectively, zones of inhibition extending approximately 1 mm from the coated suture were observed. […] Utilizing a 20 percent lactide coating solution, the zone of inhibition was greater than 1 mm. All other coatings yielded results approximately the same as those obtained from a 10 percent lactide coating solution.
# Referring to FIG. 3, a one inch-section of suture 30 coated with a solution of 20 percent by weight lactide in ethyl acetate was placed on a seeded agar plate and incubated as above. […] Referring to FIG. 2, when a section of untreated suture 20 is placed on a seeded agar plate and incubated as above, microorganisms 22 are present immediate and adjacent to the untreated suture and no zone of inhibition is noted around the suture.
# [1] = 2/0 braided 10/90 poly(lactide-co-glycolide) suture coated from 2.5 percent solution in ethyl acetate, 30-35° C., 24 hours
# [2] = 2/0 braided 10/90 poly(lactide-co-glycolide) suture coated from 5 percent solution in ethyl acetate, 30-35° C., 24 hours
# [3] = 2/0 braided 10/90 poly(lactide-co-glycolide) suture coated from 10 percent solution in ethyl acetate, 30-35° C., 24 hours
SMILES,zones of inhibition extending from the coated suture [1],zones of inhibition extending from the coated suture [2],zones of inhibition extending from the coated suture [3],"zone of inhibition extending from the coated suture (2/0 braided 10/90 poly(lactide-co-glycolide) suture coated from 20 percent solution in ethyl acetate, 30-35° C., 24 hours)","zone of inhibition (FIG. 3, in words) (one inch-section of suture coated with 20 percent by weight solution in ethyl acetate)"
C[C@@H]1OC(=O)[C@H](C)OC1=O [L(−)-lactide],approximately 1 mm,approximately 1 mm,approximately 1 mm,greater than 1 mm,Zone of inhibition 34 clearly surrounds coated suture 30
O=C1COC(=O)CO1 [glycolide],less than 1 mm,less than 1 mm,approximately 1 mm,,
